Structures are written as SMILES.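 A five-concentration, 48-hour dose response in 96-well plates underlies each endpoint, interpolated linearly between surrounding concentrations. At the GI50, growth is halved. At the TGI there is no net growth.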

GI50 and TGI data for three compounds are collected here from PubChem BioAssay (NCI).

Some test systems named below: 786-0 renal; SK-MEL-5 melanoma; CAKI-1 renal; UO-31 renal; HOP-92 NSCLC; HCT-15 colon; SF-268 CNS; HL-60(TB) leukemia; IGROV1 ovarian; SK-MEL-2 melanoma.
What all share (test): NCI anticancer screen, dose series, 48 h

For `C=CC(=O)N1CCC(C2CCNc3c(C(N)=O)c(-c4ccc(Oc5ccccc5)cc4)nn32)CC1` (stereo not given), the GI50 was 12.2 µM with 786-0 renal; 10.6 µM in the test with SK-MEL-5 melanoma; 4.51 µM in the test on CAKI-1 renal; 1.94 µM in the test on UO-31 renal; 2.47 µM with HOP-92 NSCLC; 14.9 µM with HCT-15 colon. The GI50 in the test with SF-268 CNS was 6.98 µM; in the test on HL-60(TB) leukemia, 14.6 µM; in the test with IGROV1 ovarian, 0.796 µM; with SK-MEL-2 melanoma, 20.3 µM. Further, the TGI in the test on 786-0 renal was over 100 µM; in the test on SK-MEL-5 melanoma it was 22.9 µM; with CAKI-1 renal, 71 µM; with UO-31 renal it was 24.3 µM; with HOP-92 NSCLC, 15.7 µM; with HCT-15 colon, 46.3 µM. For the same compound, the TGI was determined as 45 µM in the test on SF-268 CNS, 40.3 µM in the test on HL-60(TB) leukemia, 16.9 µM with IGROV1 ovarian and 40.4 µM in the test on SK-MEL-2 melanoma.

`Ic1ccc(-n2nnnc2-c2cnoc2-c2ccccc2)cc1`: the GI50 with 786-0 renal is 60.2 µM; with SK-MEL-5 melanoma, 25.7 µM; in the test on CAKI-1 renal it was 37.9 µM; in the test on UO-31 renal it was over 50.5 µM; in the test on HOP-92 NSCLC it was 37.9 µM; in the test with HCT-15 colon, 29.1 µM. The GI50 was 54 µM with SF-268 CNS, 78.9 µM with HL-60(TB) leukemia, over 73.6 µM with IGROV1 ovarian and over 94 µM in the test with SK-MEL-2 melanoma. Moreover, the TGI in the test on 786-0 renal was over 100 µM; in the test on SK-MEL-5 melanoma, over 72.7 µM; in the test on CAKI-1 renal, over 100 µM; with UO-31 renal, over 100 µM; in the test on HOP-92 NSCLC it was over 100 µM; in the test on HCT-15 colon it was over 73.6 µM. In addition, the TGI in the test with SF-268 CNS, in the test with HL-60(TB) leukemia, in the test with IGROV1 ovarian and in the test on SK-MEL-2 melanoma was over 100 µM throughout.

Regarding `O=[N+]([O-])c1ccc(-n2nnc(C3=NCCN3)c2-c2ccc(Cl)cc2)cc1`, the TGI with 786-0 renal, in the test on SK-MEL-5 melanoma, in the test on CAKI-1 renal, in the test with UO-31 renal, in the test with HOP-92 NSCLC and in the test with HCT-15 colon was over 100 µM in each case. Besides, the TGI with SF-268 CNS, in the test with HL-60(TB) leukemia, with IGROV1 ovarian and with SK-MEL-2 melanoma was over 100 µM throughout.
